These are literature values, as cited in patent US20110213558A1, “METHOD FOR PREDICTING ACTIVATION ENERGY USING AN ATOMIC FINGERPRINT DESCRIPTOR OR AN ATOMIC DESCRIPTOR” (Bioinformatics & Molecular Design Research Center, priority 2008, published 2011).

The test system of data set [1] is cytochrome P450. The settings on record: in vitro.
In data set [2] the test system is cytochrome P450. The settings on record: in vitro. This is another data set of the same source.

SMILES strings stand for the structures. Where two headings read alike, the source gives them in different places.

As to `Cc1ccc(CCl)cc1` [1-chloromethyl-4-methyl-benzene], the results for the Experimental metabolic rate with cytochrome P450 [1] (atom # 1) and in the data set on cytochrome P450 [1] (atom # 2) were 16.0 and 84.0, respectively.

Turning to `Clc1ccccc1` [Chlorobenzene], the values for the Experimental metabolic rate with cytochrome P450 [2] (atom # 2), in the data set with cytochrome P450 [2] (atom # 3) and in the data set on cytochrome P450 [2] (atom # 4) were 17-19, 5-9 and 71-79, respectively.

`CCc1ccccc1` [Ethylbenzene]: the Experimental metabolic rate with cytochrome P450 [1] (atom # 1) was 0.2; in the data set with cytochrome P450 [1] (atom # 2) it was 99.8.

Take `CCCCCC` [Hexane]: the Experimental metabolic rate is given as 4.5 in the data set on cytochrome P450 [1] (atom # 1), 49 with cytochrome P450 [1] (atom # 2) and 46.5 with cytochrome P450 [1] (atom # 3).

As for `COc1ccccc1` [Methoxybenzene], the Experimental metabolic rate with cytochrome P450 [2] (atom # 2) is 15-24; in the data set on cytochrome P450 [2] (atom # 3), 1-3; with cytochrome P450 [2] (atom # 4), 62-75.

With `CCCCCCCC` [Octane], the Experimental metabolic rate with cytochrome P450 [1] (atom # 1) is 2.5; in the data set on cytochrome P450 [1] (atom # 2) it was 97.5.
